Experimental data from US20210145830A1, “MATERIALS AND METHODS FOR TREATING CANCER” (Mayo Foundation for Medical Education and Research, priority 2018, published 2021).
“Also recorded” adds a separate entry of the source.

Key:
Format in all cases: cell-based
[1] = test system: p-LCK, p38MAPK, GATA-3, T-bet in CART19 cells; experiment: Western blot of signaling molecules in stimulated CART19 cells
Procedure: FIG. 24A-B. A. Western blot analysis of p-LCK inhibition by TP0903 in CART19 cells. CART19 cells were incubated with lethally irradiated JeKo-1 in the presence of TP0903 at a 1 to 3 ratio for 24 hours. After the incubation, CART19 cells were purified with anti-CD19 micro beads. […] B. Comparison of gene expression between TP0903 treated CART19 cells and non-treated CART19 cells subpopulations using RNA-seq. CART19 cells from three biological replicates were thawed and stimulated with irradiated JeKo-1 (120 Gy) for 5 days. Each sample was treated with either 30 nM TP0903 (treated condition) or DMSO (untreated condition). Representative flow cytometric analysis of CART19 cells before RNA isolation (right). RNA-seq was performed on an Illumina […] by the Genomic Sequencing Core at Mayo Clinic.

CART cells = experiment: In vitro CART19 exhaustion assay
Procedure: (§1) FIG. 11 contains an exemplary timeline for an in vitro CART19 exhaustion assay in the presence of TP0903. T cells were incubated with target cells at a 1:5 ratio (experiments were done using JEKO cells as well as primary B cells). The low E:T ratio was used to induce a state of dysfunction of CART cells. Cells were cultured in the presence of increasing doses of TP0903. On day 5 of co-culture, cells were harvested, and expression of inhibitory receptors was analyzed. Co-culture in the presence of TP0903 reduces expression of PD1, TIM3, and LAG3 inhibitory receptors.
as §1, with “T” for “FIG. 11 contains an exemplary timeline for an in vitro CART19 exhaustion assay in the presence of TP0903. T”, “reduced” for “reduces”, “receptors. TP0903 reduced exhaustion receptors on CART cells (FIG. 12).” for “receptors.”

luciferase-positive Jeko = experiment: CART19 cytotoxicity in the presence of TP0903
Procedure: FIG. 1 contains a graph showing CART19 cytotoxicity in the presence TP0903. CART19 or untransduced T cells (UTDs) were co-cultured at different effector-to-target ratios (E:T) with luciferase-positive Jeko with increasing doses of TP0903 (TP). At 24 hours, cell killing was assessed by luminescence.
FIGS. 16A-B. A head-to-head comparison of two different combination therapy. UTDs (A) or CART19 (B) were co-cultured at different effector-to-target ratios (E:T) with luciferase-positive CD19^+ cell line in the presence of DMSO, 30 nM TP0903, or 100 nM ibrutinib. Cell killing was assessed by luminescence at 24 hours.
FIG. 22A-C. In vitro experiment for the combination of CART19 and TP0903. A. CART19 were cocultured at different effector-to-target ratio (E:T) with luciferase-positive JeKo-1. At 48 hours, cell killing was assessed by luminescence. […] The means and SEM are shown (**, p<0.005, *, p<0.05, one-way ANOVA analysis). n.s., not statistically significant. B. CART19 degranulation assay and cytokine production in the presence of TP0903. CART19 were cocultured with JeKo-1 for 4 hours in the presence of TP0903 doses of TP0903 (10-65 nM). […] C. Th2/Th1 T cell subtype analysis during CART19 expansion in the presence pf TP0903. CART19 cells were stimulated with lethally irradiated (120 Gy) JeKo-1 cell lines in the presence of increasing doses of TP0903 (10-30 nM). At the day 3, Th1 and Th2 cells were defined using CD4, CCR6, CCR4 and CXCR3 expression. […] The means and SEM are shown (*, p<0.05, one-way ANOVA analysis). n.s., not statistically significant.
JEKO-Luc cells or primary B cells were used for cytotoxicity assay. In brief, targets were incubated at the indicated ratios with effector T cells for 4 or 16 hours. Killing was calculated either by bioluminescence imaging on a Xenogen IVIS-200 Spectrum camera (PerkinElmer, Hopkinton, Mass., USA) or by flow cytometry. For the latter, cells were harvested; Countbright beads and life/dead (Invitrogen) were added prior to analysis. Residual live target cells were CD19+L/D−.
CART19 or UTDs were cocultured at different effector-to-target ratio (E:T) with luciferase-positive Jeko or with primary CLL cells, with increasing dose of TP0903 as indicated on the X axis. At 24 hours, cell killing was assessed by luminescence or by flow cytometry.

[2] = CART19 + irradiated JeKo-1, 24 hours, highest dose
[3] = CART19 + irradiated JeKo-1, 24 hours, highest dose (65 nM)

## CN1CCN(Cc2ccc(Nc3ncc(Cl)c(Nc4ccccc4S(=O)(=O)N(C)C)n3)cc2)CC1 [TP0903]
[1]; [2]
  GATA-3: inhibited
  T-bet: inhibited
[1]; [3]
  phosphorylation of LCK: modest inhibition
  phosphorylation of p38MAPK: modest inhibition
[1]; T cell lysates, CART19, Example 2 text
  phosphorylation of LCK: remarkably reduced
CART cells; 1:5 E:T, JEKO or primary B cells, increasing doses of TP0903, day 5
  expression of PD1, TIM3, and LAG3 inhibitory (exhaustion) receptors on CART cells: reduces; also recorded: downregulated in a dose depended manner
CART cells; CART19 with Jeko, Example 2
  inhibitory receptors on activated CART cells: significantly downregulated
luciferase-positive Jeko; 30 nM TP0903 + CART19 vs 100 nM ibrutinib + CART19, luciferase-positive CD19+ cell line, 24 hours
  cell killing, head-to-head comparison of combinations: more synergistic killing
luciferase-positive Jeko; CART19 + TP0903, from calculations
  type of combination effect on cell killing: synergistic rather than an additive effect
luciferase-positive Jeko; CART19 + increasing doses of TP0903, different E:T ratios, luciferase-positive Jeko or primary CLL cells, 24 hours
  cell killing assessed by luminescence: robust killing at all E:T ratios
luciferase-positive Jeko; CART19 with luciferase-positive JeKo-1, 48 hours, at a specific E:T ratio
  cytotoxic effect versus TP0903 dose: increased cytotoxic effect was significantly correlated to increased TP0903 dose
luciferase-positive Jeko; combination of CART19 cells and TP0903, low E:T ratios
  antitumor activity against JeKo in vitro: synergistic antitumor activity
